In patent US20220018836A1, “NON-LIVING SURROGATE INDICATORS AND METHODS FOR SANITATION VALIDATION” (priority 2018, published 2022):

Assays:
phage T7 = experiment: Survivor population of phage T7 after sanitizer treatment; type: cell-based; conditions: 2 min, 4° C.
E. coli O157:H7 cells = type: cell-based, Escherichia coli O157:H7

SMILES | inactivation of phage T7 (phage T7; PAA at 80 ppm, 9 log inoculum level) | complete inactivation of phages (phage T7; PAA up to 80 ppm, 9 log inoculum level) | further inactivation of E. coli O157:H7 with an increase of PAA concentration (E. coli O157:H7 cells) | inactivation of E. coli O157:H7 cells (E. coli O157:H7 cells) [log] | survivors of E. coli O157:H7 (E. coli O157:H7 cells) | complete inactivation of inoculated phages (phage T7; lowest concentration tested, 2 ppm of free chlorine)
CC(=O)OO [PAA, peracetic acid] | more than 6 log | complete inactivation of phages (9 log inoculum level) was not observed | no significant inactivation | 2 | around 4 log | 
OCl [chlorine, sodium hypochlorite] |  |  |  |  |  | complete inactivation of inoculated phages was observed
